Test results reported in patent US20030199590A1, “Prostaglandin analogues for promotion of hair growth” (priority 2002, published 2003).
Read-outs that look alike come from different tables or passages of the source.

Tests used:
[1] = target: T1, FP receptors (Swiss 3T3 cells expressing FP receptors) (Mus musculus, UniProt P43117); experiment: FP receptor-mediated phosphoinositide turnover assay; format: cell-based; conditions: for Emax: Swiss-3T3, 1 h, efficacy relative to standard full agonist (100%), read-out: FP functional (%) agonistic activity; for EC50: [3H]-IPs in Swiss 3T3 cells; for % response: efficacy relative to standard
T1 construct: endogenous in cells; host or cells: Swiss 3T3 cells
T1 sequence (P43117 whole entry): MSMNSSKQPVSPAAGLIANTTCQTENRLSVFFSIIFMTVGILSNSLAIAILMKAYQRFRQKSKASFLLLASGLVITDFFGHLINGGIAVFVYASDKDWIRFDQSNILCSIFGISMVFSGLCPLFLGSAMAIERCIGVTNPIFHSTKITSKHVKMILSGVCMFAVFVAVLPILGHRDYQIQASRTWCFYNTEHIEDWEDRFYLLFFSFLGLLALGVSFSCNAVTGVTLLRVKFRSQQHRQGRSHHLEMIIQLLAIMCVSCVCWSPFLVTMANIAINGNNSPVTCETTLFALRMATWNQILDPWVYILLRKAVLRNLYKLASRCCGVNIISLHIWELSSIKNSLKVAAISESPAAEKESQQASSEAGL
Experimental: FP receptor-mediated phosphoinositide turnover assay: [^3H]Inositol phosphates ([^3H]-IPs) produced by agonist-mediated activation of phospholipase C in Swiss 3T3 cells expressing FP receptors were quantified as follows. Confluent 3T3 cells were exposed to 1.0-1.5 μCi [^3H]-myo-inositol (18.3 Ci/mmol) in 0.5 ml DMEM for 24-30 hours at 37° C. Then cells were rinsed once with DMEM/F-12 containing 10 mM LiCl, and the agonist stimulation experiment was performed in 0.5 ml of the same medium to facilitate accumulation of [^3H]-IPs. Cells were exposed to the agonist or solvent for 60 min at 37° C. (triplicate determinations), followed by aspiration of the medium and immediate addition of 1 ml of ice-cold 0.1 M formic acid. The plates were kept cold and then frozen. Samples frozen up to one week were thawed prior to chromatographic separation of radiolabeled components. The cell lysates (0.9 ml) were loaded on columns packed with approximately 1 ml AG 1-X8 anion exchange resin. The elution procedure consisted of a wash with 10 ml of H2O, then 8 ml of 50 mM ammonium formate, and finally 4 ml of 1.2 M ammonium formate with 0.1 M formic acid, which was collected in a scintillation vial. To this eluate was added 15 ml of scintillation fluid and the total [^3H]-IPs determined by scintillation counting on a beta-counter. Data were analyzed by the sigmoidal fit function of the Origin Scientific Graphics software (Microcal Software, Northampton, Mass.) to determine agonist potency (EC50 value) and efficacy, relative to the standard cloprostenol.

FP receptors = target: T2, FP receptors (Bos taurus, UniProt P37289); experiment: FP receptor binding assay ([3H]PGF2α, bovine corpus luteum membranes); conditions: for IC50: Table 1, [3H]PGF2α, bovine corpus luteum membranes, free acid form; for Ki: Table 2, FP receptor binding
T2 construct: Washed total particulate bovine corpus luteum membranes; from tissue; host or cells: bovine corpus luteum membranes
T2 sequence (P37289 whole entry): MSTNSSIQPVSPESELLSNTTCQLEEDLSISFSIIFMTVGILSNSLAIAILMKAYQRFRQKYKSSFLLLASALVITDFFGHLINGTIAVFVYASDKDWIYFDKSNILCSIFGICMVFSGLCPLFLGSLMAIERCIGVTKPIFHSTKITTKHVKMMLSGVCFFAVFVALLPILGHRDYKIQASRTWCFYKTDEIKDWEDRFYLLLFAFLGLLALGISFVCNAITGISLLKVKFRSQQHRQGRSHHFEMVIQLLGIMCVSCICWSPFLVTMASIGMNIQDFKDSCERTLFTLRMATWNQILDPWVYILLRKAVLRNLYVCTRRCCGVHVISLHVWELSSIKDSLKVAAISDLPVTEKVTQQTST
Experimental: Non-specific binding was defined with 1-10 μM unlabeled PGF2α or fluprostenol. The assays were terminated by vacuum filtration (using Whatman GF/B glass fiber filter previously soaked in 0.3% polyethyleneimine) and the data analyzed by a non-linear, iterative, curve-fitting computer program.

[2] = Table 1, read-out: FP functional EC50

Row | Emax ([1]; Table 1) [%] | EC50 [1, 2] [nM] | IC50 (FP receptors) [nM] | EC50 ([1]; Table 2, read-out: EC50) [nM] | % response ([1]; Table 2) [%] | Ki (FP receptors) [nM] | Structure (SMILES)
1 | 84 | 6.6 | 47 |  |  |  | O=C(O)CCC/C=C\C[C@H]1CC[C@@H](O)[C@@H]1CC[C@@H](O)CCc1cccc(Cl)c1 [Compound 8]
2 | 57 | 166 | 1070 |  |  |  | O=C(O)CCC/C=C\C[C@@H]1[C@@H](OC[C@H](O)COc2ccccc2)[C@H](O)C[C@@H]1O [Compound 70]
3 | 79 | 9.5 | 52 |  |  |  | O=C(O)CCC/C=C\C[C@@H]1[C@@H](CC[C@@H](F)COc2ccccc2)[C@H](O)C[C@@H]1O [Compound 45]
4 | 67 | 8.8 | 690 |  |  |  | O=C(O)CC/C=C\CC[C@@H]1[C@@H](CC[C@@H](F)COc2ccccc2)[C@H](O)C[C@@H]1O [Compound 74]
5 | 78 | 437 | 1400 |  |  |  | O=C(O)CCC/C=C\C[C@H]1[C@@H](O)CO[C@@H]1/C=C/[C@@H](O)COc1ccc(F)cc1 [Compound 37]
6 | 88 | 58 | 890 |  |  |  | O=C(O)CCC/C=C\C[C@H]1[C@@H](O)CO[C@@H]1/C=C/[C@@H](O)COc1cccc(Cl)c1 [Compound 15]
7 | 71 | 249 | 818 |  |  |  | O=C(O)CC/C=C\CC[C@H]1[C@@H](O)CO[C@@H]1/C=C/[C@H](O)COc1cccc(Cl)c1 [Compound 54]
8 | 83 | 57 | 330 |  |  |  | O=C(O)CC/C=C\CC[C@H]1[C@@H](O)CO[C@@H]1/C=C/[C@@H](O)COc1ccccc1 [Compound 52]
9 | 67 | 293 | 640 |  |  |  | O=C(O)CCC/C=C\C[C@H]1[C@@H](O)CO[C@@H]1/C=C/[C@@H](O)COc1ccccc1 [Compound 33]
10 | 87.6 | 19.6 | 96 |  |  |  | O=C(O)CCC/C=C\C[C@H]1CC[C@@H](O)[C@@H]1/C=C/[C@@H](O)CCc1ccccc1 [Compound 1]
11 | 57 | 56 | 277 |  |  |  | O=C(O)CCC/C=C\C[C@@H]1[C@@H](OC[C@@H](O)COc2ccccc2)[C@H](O)C[C@@H]1O [Compound 69]
12 | 100 | 48.6 | 573 |  |  |  | O=C(O)CCC/C=C\C[C@H]1[C@@H](O)CO[C@@H]1/C=C/[C@H](O)COc1ccccc1 [Compound 32]
13 |  |  |  | 210 | 76 | 130 | O=C(O)CCC/C=C\C[C@@H]1[C@@H](CC[C@H](O)COc2cccc(Cl)c2)[C@H](O)C[C@@H]1O [Compound 84]
14 | 67 | 194 | 7300 |  |  |  | O=C(O)CCC/C=C\C[C@H]1[C@@H](O)CO[C@@H]1/C=C/[C@H](O)COc1cccc(Cl)c1 [Compound 14]
15 | 100 | 2.6 | 10 |  |  |  | O=C(O)CCC/C=C\C[C@H]1CC[C@@H](O)[C@@H]1/C=C/[C@@H](O)COc1cccc(Cl)c1 [Compound 6]
16 | 64 | 9 | 26 |  |  |  | O=C(O)CCC/C=C\C[C@@H]1[C@@H](CC[C@@H](F)COc2cccc(Cl)c2)[C@H](O)C[C@@H]1O [Compound 17]
17 |  |  |  | 4 | 100 | 50 | O=C(O)CCC/C=C\C[C@@H]1[C@@H](CC[C@@H](O)COc2cccc(Cl)c2)[C@H](O)C[C@@H]1O [Compound 83]
18 | 44.5 | 131 | 4200 |  |  |  | O=C(O)CCC/C=C\C[C@@H]1[C@@H](/C=C/[C@H](F)COc2cccc(C(F)(F)F)c2)[C@H](O)C[C@@H]1O [Compound 76]

Row | Emax ([1]; Table 1) [%] | EC50 [1, 2] [nM] | IC50 (FP receptors) [nM] | EC50 ([1]; Table 2, read-out: EC50) [nM] | % response ([1]; Table 2) [%] | Ki (FP receptors) [nM] | Structure (SMILES)
19 | 85 | 12.5 | 230 |  |  |  | O=C(O)CCC/C=C\C[C@@H]1[C@@H](CC[C@@H](F)COc2cccc(C(F)(F)F)c2)[C@H](O)C[C@@H]1O [Compound 24]
20 | 100 | 509 | 5100 |  |  |  | O=C(O)CCC/C=C\C[C@@H]1C(C#C[C@@H](O)COc2cccc(Cl)c2)OC[C@@H]1O (stereo partly shown) [Compound 39]
21 | 74 | 187 | 1800 |  |  |  | O=C(O)CCC/C=C\C[C@H]1[C@@H](O)CO[C@@H]1/C=C/[C@@H](O)COc1cccc(C(F)(F)F)c1 [Compound 26]
22 | 61 | 781 | 9900 |  |  |  | O=C(O)CC/C=C\CC[C@H]1[C@@H](O)CO[C@@H]1/C=C/[C@H](O)COc1cccc(C(F)(F)F)c1 [Compound 51]
23 |  |  |  | 11.6 | 99 | 150 | O=C(O)CCC/C=C\C[C@@H]1[C@@H](/C=C/[C@H](O)COc2cccc(C(F)(F)F)c2)[C@H](O)C[C@@H]1O [Compound 88]
24 |  | > 10000 | 36000 |  |  |  | O=C(O)CCC/C=C\C[C@@H]1C(C#C[C@H](O)COc2cccc(Cl)c2)OC[C@@H]1O (stereo partly shown) [Compound 38]
25 | 67 |  | 9700 |  |  |  | O=C(O)CCCCCC[C@H]1C(=O)CO[C@@H]1/C=C/[C@@H](O)COc1ccccc1 [Compound 20]
26 | 91 | 57.8 | 540 |  |  |  | O=C(O)CCC/C=C\C[C@@H]1[C@@H](OC[C@@H](O)COc2cccc(Cl)c2)[C@H](O)C[C@@H]1O [Compound 65]
27 | 83 | 11.1 | 160 |  |  |  | O=C(O)CCC/C=C\C[C@@H]1[C@@H](/C=C/[C@@H](F)COc2cccc(C(F)(F)F)c2)[C@H](O)C[C@@H]1O [Compound 75]
28 | 60 | 76.6 | 310 |  |  |  | O=C(O)CCC/C=C\C[C@H]1CC[C@@H](O)[C@@H]1CC[C@@H](O)CCc1ccccc1 [Compound 2]
29 |  |  |  | 1.4 | 100 | 91 | O=C(O)CCC/C=C\C[C@@H]1[C@@H](/C=C/[C@@H](O)COc2cccc(Cl)c2)[C@H](O)C[C@@H]1O [Compound 81]
30 | 104 | 3.8 | 267 |  |  |  | O=C(O)CCC/C=C\C[C@@H]1[C@@H](/C=C/[C@@H](F)COc2ccccc2)[C@H](O)C[C@@H]1O [Compound 57]
31 | 75 | 1240 | 4600 |  |  |  | O=C(O)CCC/C=C\C[C@H]1[C@@H](O)CO[C@@H]1/C=C/[C@H](O)COc1ccc(F)cc1 [Compound 36]
32 | 56 | 503 | 4340 |  |  |  | O=C(O)CCC/C=C\C[C@@H]1[C@@H](OC[C@H](O)COc2cccc(Cl)c2)[C@H](O)C[C@@H]1O [Compound 66]
33 | 100 | 80 | 1900 |  |  |  | O=C(O)CCC/C=C\C[C@H]1[C@@H](O)CO[C@@H]1/C=C/[C@@H](O)CCc1ccccc1 [Compound 28]
34 | 92 | 96 | 350 |  |  |  | O=C(O)CC/C=C\CC[C@H]1[C@@H](O)CO[C@@H]1/C=C/[C@@H](O)COc1cccc(C(F)(F)F)c1 [Compound 53]
35 | 82 | 23 | 430 |  |  |  | O=C(O)CC/C=C\CC[C@H]1[C@@H](O)CO[C@@H]1/C=C/[C@@H](O)COc1cccc(Cl)c1 [Compound 40]
36 |  |  |  | 41 | 96 | 260 | O=C(O)CCC/C=C/C[C@@H]1[C@@H](/C=C/[C@@H](O)COc2cccc(C(F)(F)F)c2)[C@H](O)C[C@@H]1O [Compound 89]

Row | Structure (SMILES) | Emax ([1]; Table 1) [%] | EC50 [1, 2] [nM] | IC50 (FP receptors) [nM] | EC50 ([1]; Table 2, read-out: EC50) [nM] | % response ([1]; Table 2) [%] | Ki (FP receptors) [nM]
37 | O=C(O)CCCCCC[C@@H]1[C@@H](CC[C@@H](O)COc2cccc(Cl)c2)[C@H](O)C[C@@H]1O [Compound 85] |  |  |  | 23 | 100 | 220
